IC50 data for 28 compounds are collected here from patent US20260374756A1, “HETEROCYCLIC COMPOUNDS AS INHIBITORS OF MONOACYLGLYCEROL LIPASE (MAGL)” (Hoffmann-La Roche Inc., priority 2022, published 2026).

This assay has as its target T1, hMAGL (Homo sapiens, UniProt Q99685).
T1 sequence (Q99685 1-303): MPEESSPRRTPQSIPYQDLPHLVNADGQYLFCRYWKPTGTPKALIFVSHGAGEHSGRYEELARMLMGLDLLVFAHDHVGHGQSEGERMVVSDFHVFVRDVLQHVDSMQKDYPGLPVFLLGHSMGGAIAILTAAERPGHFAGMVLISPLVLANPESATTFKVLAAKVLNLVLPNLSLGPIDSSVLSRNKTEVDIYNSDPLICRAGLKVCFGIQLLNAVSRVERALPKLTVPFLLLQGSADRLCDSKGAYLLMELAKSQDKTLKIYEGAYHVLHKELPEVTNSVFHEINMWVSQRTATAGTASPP
Put plainly: 2-AG assay: MAGL inhibition, hydrolysis of 2-arachidonoylglycerol to arachidonic acid followed by mass spectrometry. It is filed as biochemical. The gist of the method: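 MAGL preincubated with compound 15 min at RT in 50 mM Tris, 1 mM EDTA, 0.01% Tween-20, 2.5% DMSO; reaction started with 8 μM 2-AG (final), […], 30 min at RT. Quenched with acetonitrile containing d8-arachidonic acid; arachidonic acid quantified by RapidFire SPE-triple quad MS as arachidonic acid/d8 ratio.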
The IC50 is the midpoint of a concentration-inhibition curve. In turn, `O=C(N1CC2(CC(Cn3cc(S(=O)(=O)C(F)(F)F)cn3)C2)C1)N1CC2(CC(n3cnc(C(F)(F)F)n3)C2)C1` [Example 353, [6-[3-(trifluoromethyl)-1,2,4-triazol-1-yl]-2-azaspiro[3.3]heptan-2-yl]-[6-[(4-triflylpyrazol-1-yl)methyl]-2-azaspiro[3.3]heptan-2-yl]methanone] came in with an IC50 of 0.19 nM. With `O=C(N1CC2(CC(Cn3cc(C(F)(F)F)cn3)C2)C1)N1CC2(CC(n3cnc(C4(O)CC4)n3)C2)C1` [Example 12] the figure was 8.67 nM; with `Cc1nc(C(F)(F)F)c(CN2CC3(C2)CN(C(=O)N2CC4(CC(n5cnc(C(F)(F)F)n5)C4)C2)C3)s1` [Example 85], 37.1 nM. Take `N=S(=O)(c1cnn(CC2CC3(C2)CN(C(=O)N2CC4(CC(n5cnc(C(F)(F)F)n5)C4)C2)C3)c1)C(F)(F)F` (stereo not shown) [Example 341, [6-[[4-(trifluoromethylsulfonimidoyl)pyrazol-1-yl]methyl]-2-azaspiro[3.3]heptan-2-yl]-[6-[3-(trifluoromethyl)-1,2,4-triazol-1-yl]-2-azaspiro[3.3]heptan-2-yl]methanone]: the IC50 was determined as 3.54 nM.

`O=C(N1CC2(CCN(Cc3cc(C(F)(F)F)no3)CC2)C1)N1CC2(CC(n3cnc(C4CC4)n3)C2)C1` [Example 329, [6-(3-cyclopropyl-1,2,4-triazol-1-yl)-2-azaspiro[3.3]heptan-2-yl]-[7-[[3-(trifluoromethyl)isoxazol-5-yl]methyl]-2,7-diazaspiro[3.5]nonan-2-yl]methanone] yielded an IC50 of 13.9 nM. In turn, `CC(C)(C)c1c[nH]c(CN2CC3(C2)CN(C(=O)N2CC4(CC(n5cnc(C6CC6)n5)C4)C2)C3)n1` [Example 253, [6-[(4-tert-butyl-1H-imidazol-2-yl)methyl]-2,6-diazaspiro[3.3]heptan-2-yl]-[6-(3-cyclopropyl-1,2,4-triazol-1-yl)-2-azaspiro[3.3]heptan-2-yl]methanone] gave a half-inhibitory concentration (IC50) of 38.6 nM.

`O=C(N1CC2(CC(Oc3cnn(CC(F)(F)F)c3)C2)C1)N1CC2(CC(c3cc(C4CC4)n[nH]3)C2)C1` [Example 248, [6-(3-cyclopropyl-1H-pyrazol-5-yl)-2-azaspiro[3.3]heptan-2-yl]-[6-[1-(2,2,2-trifluoroethyl)pyrazol-4-yl]oxy-2-azaspiro[3.3]heptan-2-yl]methanone] showed an IC50 of 19 nM. In turn, `O=C(N1CC2(CC(n3cnc(C4(O)CC4)n3)C2)C1)N1CC2(CN(Cc3nc(C4CC4)cs3)C2)C1` [Example 240, [6-[(4-cyclopropylthiazol-2-yl)methyl]-2,6-diazaspiro[3.3]heptan-2-yl]-[6-[3-(1-hydroxycyclopropyl)-1,2,4-triazol-1-yl]-2-azaspiro[3.3]heptan-2-yl]methanone] showed an IC50 of 232 nM. Next, `O=C(N1CC2(CC(c3cc(C4CC4)n[nH]3)C2)C1)N1CC2(CN(Cc3cnn(C(F)(F)F)c3)C2)C1` [Example 180, [6-(3-cyclopropyl-1H-pyrazol-5-yl)-2-azaspiro[3.3]heptan-2-yl]-[6-[[1-(trifluoromethyl)pyrazol-4-yl]methyl]-2,6-diazaspiro[3.3]heptan-2-yl]methanone]: 23.4 nM; `O=C(N1CC2(CC(n3cnc(C4CC4)n3)C2)C1)N1CC2(CN(Cc3nc(C(F)(F)F)cs3)C2)C1` [Example 53, [6-(3-cyclopropyl-1,2,4-triazol-1-yl)-2-azaspiro[3.3]heptan-2-yl]-[6-[[4-(trifluoromethyl)thiazol-2-yl]methyl]-2,6-diazaspiro[3.3]heptan-2-yl]methanone]: 2.62 nM.

Compound `Cc1cc(C(F)(F)F)nn1CC1CC2(C1)CN(C(=O)N1CC3(CC(n4cnc(C5(O)CC5)n4)C3)C1)C2` [Example 70] had an IC50 of 131 nM. As for `O=C(N1CC2(CC(n3cnc(C4CC4)n3)C2)C1)N1CC2(CN(Cc3cc(C(F)(F)F)[nH]n3)C2)C1` [Example 242, [6-(3-cyclopropyl-1,2,4-triazol-1-yl)-2-azaspiro[3.3]heptan-2-yl]-[6-[[5-(trifluoromethyl)-1H-pyrazol-3-yl]methyl]-2,6-diazaspiro[3.3]heptan-2-yl]methanone], the midpoint of inhibition, the IC50, lay at 3.73 nM. Next, `O=C(N1CC2(CC(n3cnc(C(F)(F)F)n3)C2)C1)N1CC2(CN(Cc3nc(C(F)(F)F)n[nH]3)C2)C1` [Example 229, [6-[3-(trifluoromethyl)-1,2,4-triazol-1-yl]-2-azaspiro[3.3]heptan-2-yl]-[6-[[3-(trifluoromethyl)-1H-1,2,4-triazol-5-yl]methyl]-2,6-diazaspiro[3.3]heptan-2-yl]methanone]: 1200 nM; `CC(C)(C)c1coc(CN2CC3(C2)CN(C(=O)N2CC4(CC(n5cnc(C(F)(F)F)n5)C4)C2)C3)n1` [Example 97, [6-[(4-tert-butyloxazol-2-yl)methyl]-2,6-diazaspiro[3.3]heptan-2-yl]-[6-[3-(trifluoromethyl)-1,2,4-triazol-1-yl]-2-azaspiro[3.3]heptan-2-yl]methanone]: 4.12 nM; `O=C(N1CC2(CC(Cc3nnc(C4(C(F)(F)F)CC4)o3)C2)C1)N1CC2(CC(n3cnc(C(F)(F)F)n3)C2)C1` [Example 7]: 2.51 nM.

Take `O=C(N1CC2(CC(Cc3nc(C(F)(F)F)c[nH]3)C2)C1)N1CC2(CC(n3cnc(C4CC4)n3)C2)C1` [Example 351, [6-(3-cyclopropyl-1,2,4-triazol-1-yl)-2-azaspiro[3.3]heptan-2-yl]-[6-[[4-(trifluoromethyl)-1H-imidazol-2-yl]methyl]-2-azaspiro [3.3]heptan-2-yl]methanone]: the IC50 was found to be 0.77 nM. Regarding `O=C(N1CC2(CC(Cc3cc(C4CC4)n[nH]3)C2)C1)N1CC2(CC(n3cnc(C4(O)CC4)n3)C2)C1` [Example 125, [6-[(3-cyclopropyl-1H-pyrazol-5-yl)methyl]-2-azaspiro[3.3]heptan-2-yl]-[6-[3-(1-hydroxycyclopropyl)-1,2,4-triazol-1-yl]-2-azaspiro[3.3]heptan-2-yl]methanone], the IC50 came to 2.25 nM. Next, `O=C(N1CC2(CC(n3cnc(C(F)(F)F)n3)C2)C1)N1CC2(CN(Cc3coc(C(F)(F)F)n3)C2)C1` [Example 213, [6-[[2-(trifluoromethyl)oxazol-4-yl]methyl]-2,6-diazaspiro[3.3]heptan-2-yl]-[6-[3-(trifluoromethyl)-1,2,4-triazol-1-yl]-2-azaspiro[3.3]heptan-2-yl]methanone]: 168 nM. `O=C(N1CC2(CC(Cc3n[nH]c(C4CC4)n3)C2)C1)N1CC2(CC(n3cnc(C(F)F)n3)C2)C1` [Example 318, [6-[(5-cyclopropyl-1H-1,2,4-triazol-3-yl)methyl]-2-azaspiro[3.3]heptan-2-yl]-[6-[3-(difluoromethyl)-1,2,4-triazol-1-yl]-2-azaspiro[3.3]heptan-2-yl]methanone] displayed an IC50 of 62.8 nM. In the case of `Cn1ncc(CN2CC3(C2)CN(C(=O)N2CC4(CC(n5cnc(C6CC6)n5)C4)C2)C3)c1S(N)(=O)=O` [Example 251], the IC50 is 368 nM. With `O=C(N1CC2(CC(n3cnc(C(F)(F)F)n3)C2)C1)N1CC2(CN(Cc3ccnn3CC(F)F)C2)C1` [Example 260, [6-[[2-(2,2-difluoroethyl)pyrazol-3-yl]methyl]-2,6-diazaspiro[3.3]heptan-2-yl]-[6-[3-(trifluoromethyl)-1,2,4-triazol-1-yl]-2-azaspiro[3.3]heptan-2-yl]methanone] the figure was 167 nM. Next, `O=C(N1CC2(CC(Cn3ccc(C4CC4)n3)C2)C1)N1CC2(CC(n3cnc(C4CC4)n3)C2)C1` [Example 143, [6-[(3-cyclopropylpyrazol-1-yl)methyl]-2-azaspiro[3.3]heptan-2-yl]-[6-(3-cyclopropyl-1,2,4-triazol-1-yl)-2-azaspiro[3.3]heptan-2-yl]methanone]: 0.38 nM; `O=C(N1CC2(CC(Cc3cn(CC(F)(F)F)nc3C(F)(F)F)C2)C1)N1CC2(CC(n3cnc(C(F)(F)F)n3)C2)C1` [Example 121, [6-[[1-(2,2,2-trifluoroethyl)-3-(trifluoromethyl)pyrazol-4-yl]methyl]-2-azaspiro[3.3]heptan-2-yl]-[6-[3-(trifluoromethyl)-1,2,4-triazol-1-yl]-2-azaspiro[3.3]heptan-2-yl]methanone]: 0.35 nM.

Take `Cn1nc(CN2CC3(C2)CN(C(=O)N2CC4(CC(c5cc(C6CC6)n[nH]5)C4)C2)C3)cc1C(F)(F)F` [Example 160]: the IC50 stood at 2.08 nM. Next, `O=C(N1CC2(CC(n3cnc(C4CC4)n3)C2)C1)N1CC2(CN(Cc3nc(CC4CC4)no3)C2)C1` [Example 265, [6-[[3-(cyclopropylmethyl)-1,2,4-oxadiazol-5-yl]methyl]-2,6-diazaspiro[3.3]heptan-2-yl]-[6-(3-cyclopropyl-1,2,4-triazol-1-yl)-2-azaspiro[3.3]heptan-2-yl]methanone]: 9.94 nM; `O=C(N1CC2(CC(n3cnc(C(F)(F)F)n3)C2)C1)N1CC2(CN(Cc3nc(C(F)(F)F)cs3)C2)C1` [Example 51]: 17 nM; `O=C(N1CC2(CC(n3cnc(C(F)(F)F)n3)C2)C1)N1CC2(CN(Cc3ccn(CCC(F)(F)F)n3)C2)C1` [Example 312, [6-[3-(trifluoromethyl)-1,2,4-triazol-1-yl]-2-azaspiro[3.3]heptan-2-yl]-[6-[[1-(3,3,3-trifluoropropyl)pyrazol-3-yl]methyl]-2,6-diazaspiro[3.3]heptan-2-yl]methanone]: 183 nM.

Regarding `CC(C)(C)n1nccc1CN1CC2(C1)CN(C(=O)N1CC3(CC(n4cnc(C(F)(F)F)n4)C3)C1)C2` [Example 275, [6-[(2-tert-butylpyrazol-3-yl)methyl]-2,6-diazaspiro[3.3]heptan-2-yl]-[6-[3-(trifluoromethyl)-1,2,4-triazol-1-yl]-2-azaspiro[3.3]heptan-2-yl]methanone], half-maximal inhibition (IC50) was put at 132 nM.
